Among the test systems are SW-620 colon; T-47D breast; A498 renal; SNB-75 CNS; UACC-257 melanoma; HCC-2998 colon; OVCAR-8 ovarian; NCI-H460 lung; NCI-H522 lung; DU-145 prostate.
Holding throughout (test): NCI tumour cell line growth inhibition, 48 h

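Five compound concentrations were applied to cells in 96-well plates for 48 hours; endpoints were derived by simple linear interpolation of the resulting dose-response curve. Abbreviation: GI50, concentration required for 50% inhibition of growth. TGI is the concentration that stops growth completely.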 Where only a bound is given, the exact number is not on record here.

As to `C=C1C(=O)O[C@@H]2C[C@@]3(C)CCC[C@H](C)C3=C[C@H]12`, the TGI was 12.3 µM in the assay on SW-620 colon; 9.36 µM in the assay with T-47D breast; 24.9 µM in the assay on A498 renal; 13.4 µM in the assay with SNB-75 CNS; 20.1 µM in the assay with UACC-257 melanoma; 29.1 µM with HCC-2998 colon. Further, the TGI was 19.5 µM in the assay on OVCAR-8 ovarian, 31.7 µM with NCI-H460 lung, 11.1 µM with NCI-H522 lung and 24.3 µM in the assay with DU-145 prostate.

With `O=C1CC(c2ccc(N3CCOCC3)cc2)(c2ccsc2)NC(=O)C1Sc1ccccc1Cl` (stereo not drawn), the GI50 was 21.6 µM with SW-620 colon; 85.9 µM in the assay on T-47D breast; 10.4 µM in the assay on A498 renal; 54.9 µM in the assay with SNB-75 CNS; over 100 µM in the assay with UACC-257 melanoma; over 100 µM in the assay with HCC-2998 colon. Also, the GI50 in the assay with OVCAR-8 ovarian was 7.68 µM; with NCI-H460 lung it was 13.5 µM; in the assay with NCI-H522 lung it was 13.8 µM; with DU-145 prostate, 85 µM. The TGI in the assay with SW-620 colon, in the assay with T-47D breast, in the assay on A498 renal, in the assay on SNB-75 CNS, in the assay on UACC-257 melanoma and in the assay with HCC-2998 colon was over 100 µM each time. The TGI in the assay with OVCAR-8 ovarian, with NCI-H460 lung, with NCI-H522 lung and in the assay with DU-145 prostate was over 100 µM in each case.

As for `CC[C@@H](C(=O)[C@@H](C)[C@@H](O)[C@H](C)[C@@H]1O[C@@H]([C@@H](CC)C(=O)O)CC[C@@H]1C)C1O[C@]2(C=CC(=O)[C@]3(CC[C@@](C)([C@H]4CC[C@](O)(CC)[C@H](C)O4)O3)O2)[C@H](C)C[C@@H]1C` (stereo partly drawn), the GI50 in the assay on SW-620 colon was 0.827 µM; with T-47D breast, 0.0596 µM; with A498 renal, 0.0631 µM; in the assay with SNB-75 CNS, 1.21 µM; with UACC-257 melanoma, 0.169 µM; with HCC-2998 colon it was 0.152 µM. Further, the GI50 in the assay with OVCAR-8 ovarian is 1.73 µM; in the assay on NCI-H460 lung, 0.408 µM; in the assay with NCI-H522 lung it was 0.052 µM; in the assay on DU-145 prostate, 1.43 µM. Also, the TGI worked out at 12.8 µM with SW-620 colon; 17.3 µM in the assay on T-47D breast; 0.877 µM in the assay with A498 renal; 7.12 µM with SNB-75 CNS; 16.7 µM with UACC-257 melanoma; 12.6 µM in the assay on HCC-2998 colon. The TGI in the assay with OVCAR-8 ovarian is over 45.2 µM; with NCI-H460 lung, 11.3 µM; in the assay on NCI-H522 lung, 3.64 µM; in the assay with DU-145 prostate, 18 µM.

For the molecule `CC(C)=CCC[C@H](C)[C@@H]1CC[C@]2(C)C3CC[C@]4(OC4(C)C)C(CCCO)[C@]3(C)CC[C@@]12C` (stereo partly drawn), the GI50 is 28 µM in the assay on SW-620 colon; 17.4 µM with T-47D breast; 20.1 µM in the assay on A498 renal; 29.8 µM in the assay with SNB-75 CNS; 24.1 µM in the assay with UACC-257 melanoma; 7.75 µM in the assay with HCC-2998 colon. Also, the GI50 in the assay on OVCAR-8 ovarian was 37.7 µM; in the assay on NCI-H460 lung, 23.7 µM; in the assay with NCI-H522 lung it was 32.4 µM; with DU-145 prostate it was 32.9 µM. The TGI worked out at 64.8 µM in the assay with SW-620 colon; 45.6 µM in the assay with T-47D breast; 37.2 µM in the assay with A498 renal; 58 µM in the assay on SNB-75 CNS; 59.9 µM in the assay with UACC-257 melanoma; 22.5 µM with HCC-2998 colon. Further, the TGI with OVCAR-8 ovarian was over 100 µM; in the assay with NCI-H460 lung, 70.3 µM; in the assay with NCI-H522 lung it was over 100 µM; in the assay with DU-145 prostate, over 100 µM.

As for `C1=Cc2ccccc2Nc2ccccc21`, the GI50 with SW-620 colon, with T-47D breast, in the assay with A498 renal, in the assay with SNB-75 CNS, with UACC-257 melanoma and with HCC-2998 colon was over 100 µM in each case. The GI50 with OVCAR-8 ovarian, with NCI-H460 lung, with NCI-H522 lung and with DU-145 prostate was over 100 µM throughout. Further, the TGI in the assay with SW-620 colon, in the assay on T-47D breast, in the assay on A498 renal, in the assay with SNB-75 CNS, in the assay with UACC-257 melanoma and in the assay with HCC-2998 colon was over 100 µM in each case. In addition, the TGI in the assay on OVCAR-8 ovarian, with NCI-H460 lung, in the assay on NCI-H522 lung and in the assay with DU-145 prostate was over 100 µM in each case.

In the case of `COc1cc(C(=O)c2ccc3c(c2)OCO3)cc(OC)c1OC`, the GI50 in the assay on SW-620 colon was 0.621 µM; in the assay on T-47D breast it was 5.3 µM; in the assay with A498 renal, 1.75 µM; in the assay on SNB-75 CNS it was 1.39 µM; in the assay on UACC-257 melanoma, over 100 µM; with HCC-2998 colon, 9.73 µM. Besides, the GI50 is 5.55 µM with OVCAR-8 ovarian, 2.55 µM in the assay on NCI-H460 lung, 1.4 µM with NCI-H522 lung and 3.51 µM in the assay with DU-145 prostate. Also, the TGI in the assay with SW-620 colon was over 100 µM; with T-47D breast it was over 100 µM; with A498 renal it was 7.93 µM; in the assay on SNB-75 CNS, 5.03 µM; in the assay on UACC-257 melanoma, over 100 µM; in the assay with HCC-2998 colon, over 100 µM. For the same molecule, the TGI was over 100 µM in the assay with OVCAR-8 ovarian, over 100 µM with NCI-H460 lung, 8.84 µM in the assay with NCI-H522 lung and over 65.7 µM with DU-145 prostate.

For `COc1ccc2nc(-c3cc(-c4cc(OC)c(OC)c(OC)c4)n[nH]3)[nH]c2c1`, the GI50 is 2.89 µM in the assay on SW-620 colon; 0.346 µM with T-47D breast; 2.23 µM with A498 renal; 2.23 µM in the assay with SNB-75 CNS; 1.67 µM in the assay with UACC-257 melanoma; 3.03 µM with HCC-2998 colon. For the same molecule, the GI50 with OVCAR-8 ovarian was 1.15 µM; in the assay on NCI-H460 lung, 2.64 µM; in the assay on NCI-H522 lung it was 1.21 µM; in the assay with DU-145 prostate, 2.29 µM. In addition, the TGI came to 11.1 µM in the assay with SW-620 colon; 1.92 µM with T-47D breast; 10.2 µM in the assay on A498 renal; 6.34 µM in the assay with SNB-75 CNS; 3.69 µM in the assay on UACC-257 melanoma; 10.6 µM in the assay on HCC-2998 colon. Moreover, the TGI in the assay on OVCAR-8 ovarian was determined as 3.2 µM; in the assay with NCI-H460 lung, 8.08 µM; with NCI-H522 lung, 3.98 µM; in the assay on DU-145 prostate, 8.28 µM.

With `O=C(Nc1ccccc1O)c1cccc(NC2=C(Cl)C(=O)N(Cc3ccccc3)C2=O)c1`, the GI50 in the assay on SW-620 colon is 2.12 µM; in the assay with T-47D breast, 8.06 µM; in the assay on A498 renal it was 14.2 µM; in the assay with SNB-75 CNS it was 13.5 µM; with UACC-257 melanoma it was 4.44 µM; in the assay with HCC-2998 colon it was 3.33 µM. For the same molecule, the GI50 in the assay on OVCAR-8 ovarian was 2.06 µM; in the assay with NCI-H460 lung, 4.22 µM; with NCI-H522 lung it was 9.02 µM; in the assay with DU-145 prostate it was 7.07 µM. Also, the TGI in the assay with SW-620 colon was found to be 5.06 µM; in the assay with T-47D breast, 28.6 µM; with A498 renal it was 27.7 µM; with SNB-75 CNS, 33.1 µM; in the assay with UACC-257 melanoma, 16.6 µM; with HCC-2998 colon, 13.4 µM. In addition, the TGI with OVCAR-8 ovarian was found to be 4.7 µM; in the assay with NCI-H460 lung it was 14.9 µM; in the assay on NCI-H522 lung it was 28.5 µM; in the assay with DU-145 prostate it was 20.6 µM.

As for `Cn1cncc1[C@@](N)(c1ccc(Cl)cc1)c1ccc2c(c1)c(-c1cccc(Cl)c1)cc(=O)n2C`, the GI50 is 1.82 µM in the assay with SW-620 colon; 2.57 µM in the assay with T-47D breast; 0.887 µM in the assay with A498 renal; 4.68 µM with SNB-75 CNS; 1.37 µM with UACC-257 melanoma; 1.79 µM with HCC-2998 colon. Besides, the GI50 in the assay with OVCAR-8 ovarian was 2.78 µM; with NCI-H460 lung, 1.97 µM; in the assay with NCI-H522 lung, 0.655 µM; in the assay with DU-145 prostate it was 1.81 µM. Besides, the TGI in the assay with SW-620 colon is 12.7 µM; with T-47D breast, 17.2 µM; in the assay on A498 renal, 17.2 µM; in the assay with SNB-75 CNS, 18.9 µM; with UACC-257 melanoma it was 12.4 µM; in the assay on HCC-2998 colon it was 7.08 µM. In addition, the TGI stood at 14.8 µM in the assay on OVCAR-8 ovarian, 11.9 µM in the assay on NCI-H460 lung, 5.05 µM in the assay with NCI-H522 lung and 3.66 µM with DU-145 prostate.

`CC[C@H](C)[C@H]1NC(=O)[C@@H](N[C@](C)(O)[C@@H](N)CC(C)C)[C@@H](C)OC(=O)[C@H](Cc2ccc(OC)cc2)N(C)C(=O)[C@@H]2CCCN2C(=O)[C@H](CC(C)C)NC(=O)[C@@H](C)C(=O)[C@H](C(C)C)OC(=O)C[C@@H]1O`: the GI50 was 0.0167 µM with SW-620 colon; 0.00897 µM with T-47D breast; 0.037 µM in the assay on A498 renal; 0.0215 µM with SNB-75 CNS; 0.0408 µM in the assay with UACC-257 melanoma; 0.0197 µM in the assay with HCC-2998 colon. For the same molecule, the GI50 in the assay on OVCAR-8 ovarian is 0.0161 µM; in the assay with NCI-H460 lung it was 0.011 µM; with NCI-H522 lung, 0.0114 µM; in the assay on DU-145 prostate, 0.00903 µM. In addition, the TGI with SW-620 colon was determined as 6.06 µM; with T-47D breast, 0.301 µM; with A498 renal, 0.403 µM; in the assay with SNB-75 CNS, 0.436 µM; with UACC-257 melanoma, 0.337 µM; with HCC-2998 colon, 0.361 µM. For the same molecule, the TGI in the assay on OVCAR-8 ovarian is 0.355 µM; in the assay with NCI-H460 lung, 0.572 µM; in the assay on NCI-H522 lung it was 0.143 µM; with DU-145 prostate, 0.509 µM.

On to `COc1ccc(N(CC(=O)NCCC[Te]c2ccccc2)C(=O)c2ccccc2)cc1`, for which the GI50 is 3.87 µM with SW-620 colon; 3.4 µM in the assay with T-47D breast; 2.17 µM in the assay with A498 renal; 2.58 µM in the assay with SNB-75 CNS; 3.03 µM in the assay with HCC-2998 colon; 3.03 µM in the assay on OVCAR-8 ovarian. Also, the GI50 in the assay on NCI-H460 lung was 0.543 µM; in the assay on NCI-H522 lung, 3.1 µM; in the assay on DU-145 prostate, 3.9 µM. The TGI amounted to 14.4 µM in the assay with SW-620 colon; 21.6 µM with T-47D breast; 5.35 µM in the assay on A498 renal; 9.64 µM with SNB-75 CNS; 8.21 µM with HCC-2998 colon; 8.12 µM in the assay on OVCAR-8 ovarian. Further, the TGI in the assay on NCI-H460 lung stood at 2.37 µM; in the assay on NCI-H522 lung, 8.84 µM; in the assay with DU-145 prostate it was 13.9 µM.
